{"source": "paper PMC9465641", "about": "(Frontiers in Pharmacology, 2022)", "origin": "cited, not measured here", "parameters": "method as in Wang et al., 2021; Chen et al., 2022", "details": "range reported previously; ref Wang et al., 2021; Chen et al., 2022; cited from earlier work"}
{"substance": "polymyxin B", "values": [{"measurement": "CL", "result": "1.59 to 2.86", "unit": "L/h"}]}
